Experimental data taken from ChEMBL document CHEMBL1135549 (J Med Chem, 2002).

Assays:
[1] = biological target: T1, Fatty-acid amide hydrolase 1 (Homo sapiens, UniProt O00519); assay: Inhibition of Fatty-acid amide hydrolase (FAAH) activity in human lymphoma U937 cell using [3H]AEA as substrate in the 0-25 uM conc; assay type: cell-based, U-937
T1 sequence (O00519 whole entry): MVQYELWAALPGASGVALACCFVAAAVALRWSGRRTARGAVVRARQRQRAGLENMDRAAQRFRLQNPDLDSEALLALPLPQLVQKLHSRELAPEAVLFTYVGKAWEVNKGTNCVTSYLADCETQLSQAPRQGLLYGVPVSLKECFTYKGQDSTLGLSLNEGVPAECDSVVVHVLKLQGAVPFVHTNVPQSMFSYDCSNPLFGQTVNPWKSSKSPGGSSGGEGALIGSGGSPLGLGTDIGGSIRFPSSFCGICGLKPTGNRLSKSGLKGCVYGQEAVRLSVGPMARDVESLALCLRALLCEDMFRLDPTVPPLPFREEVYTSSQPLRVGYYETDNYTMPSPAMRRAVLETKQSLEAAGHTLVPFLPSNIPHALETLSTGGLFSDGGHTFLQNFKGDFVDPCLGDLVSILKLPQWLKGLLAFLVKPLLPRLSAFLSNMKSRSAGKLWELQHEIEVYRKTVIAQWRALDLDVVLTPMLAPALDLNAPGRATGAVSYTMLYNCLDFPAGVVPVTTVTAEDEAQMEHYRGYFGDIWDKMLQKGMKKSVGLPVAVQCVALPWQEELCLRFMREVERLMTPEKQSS

Cannabinoid receptor 1 = Cannabinoid receptor 1 (Rattus norvegicus, UniProt P20272); assay: Displacement of [3H]CP-55940 from rat forebrain membrane which expresses Cannabinoid receptor 1 in the presence of PMSF
[2] = biological target: Cannabinoid receptor (Rattus norvegicus) (UniProt Q9QZN9+P20272); assay: Ratio of Ki at CB1 to Ki at CB2 receptors; assay type: protein assay
[3] = Inhibition of N-arachidonoylethanolamine transporter (AEA) activity in human lymphoma U937 cell using [3H]AEA as substrate in the 0-1000 nM conc.; assay type: cell-based; conditions: u-937
Cannabinoid receptor 2 = biological target: T2, Cannabinoid receptor 2 (Rattus norvegicus, UniProt Q9QZN9); assay: Displacement of [3H]CP-55940 from rat forebrain membrane which expresses Cannabinoid receptor 2 in the presence of PMSF
T2 sequence (Q9QZN9 whole entry): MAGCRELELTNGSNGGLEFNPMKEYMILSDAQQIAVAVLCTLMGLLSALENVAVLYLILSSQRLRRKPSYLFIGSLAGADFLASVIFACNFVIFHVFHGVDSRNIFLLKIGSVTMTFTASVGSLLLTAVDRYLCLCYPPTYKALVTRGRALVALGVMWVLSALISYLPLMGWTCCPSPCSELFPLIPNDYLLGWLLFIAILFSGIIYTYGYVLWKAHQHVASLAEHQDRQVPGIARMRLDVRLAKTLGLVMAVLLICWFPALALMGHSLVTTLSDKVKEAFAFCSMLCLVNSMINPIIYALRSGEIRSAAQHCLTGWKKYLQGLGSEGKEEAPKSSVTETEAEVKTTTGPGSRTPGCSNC

Sequence of Cannabinoid receptor (Rattus norvegicus) (P20272 whole entry, looked up, one chain of several): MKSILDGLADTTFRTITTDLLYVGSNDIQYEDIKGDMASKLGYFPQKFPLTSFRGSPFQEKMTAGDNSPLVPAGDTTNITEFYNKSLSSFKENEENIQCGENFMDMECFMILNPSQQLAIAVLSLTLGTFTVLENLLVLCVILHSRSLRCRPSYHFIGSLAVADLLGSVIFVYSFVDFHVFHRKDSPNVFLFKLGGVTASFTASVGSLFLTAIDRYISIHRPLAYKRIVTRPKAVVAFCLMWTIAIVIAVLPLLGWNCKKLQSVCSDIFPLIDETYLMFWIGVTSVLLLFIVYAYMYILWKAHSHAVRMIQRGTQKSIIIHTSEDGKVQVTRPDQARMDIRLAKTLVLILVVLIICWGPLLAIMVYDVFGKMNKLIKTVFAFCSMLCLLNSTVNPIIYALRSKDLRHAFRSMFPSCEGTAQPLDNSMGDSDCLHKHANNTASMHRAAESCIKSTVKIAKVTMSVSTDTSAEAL
Sequence of Cannabinoid receptor 1 (P20272 whole entry): as the sequence (P20272 whole entry, looked up, one chain of several) above

| Compound | Ki [1] | Ki (Cannabinoid receptor 1) | Ratio [2] | Ki [3] | Ki (Cannabinoid receptor 2) |
| --- | --- | --- | --- | --- | --- |
| CCCCCC(O)/C=C/C=C\C/C=C\C/C=C\CCCC(=O)NCCO (mixture of isomers) | 0.63 µM | 0.68 µM | > 0.7 | > 10 µM | > 1 µM |
| CCCCC[C@@H](O)/C=C/C=C\C/C=C\C/C=C\CCCC(=O)NCCO | 0.63 µM | 0.6 µM | < 0.6 | > 10 µM | > 1 µM |
| CCCCC/C=C\C/C=C\C/C=C\C/C=C\CCCC(=O)OC[C@H](O)CO | 2.5 µM | > 1 µM | – | 10 µM | > 1 µM |
| CCCCC/C=C\C=C\[C@@H](O)C/C=C\C/C=C\CCCC(=O)NCCO | 0.57 µM | > 1 µM | – | > 10 µM | > 1 µM |
| CCCCC[C@H](O)/C=C/C=C\C=C\[C@@H](O)C/C=C\CCCC(=O)NCCO | 0.69 µM | > 1 µM | – | > 10 µM | > 1 µM |
| CCCCC[C@H](O)/C=C/C=C\C/C=C\C/C=C\CCCC(=O)OC[C@@H](O)CO | 6 µM | > 1 µM | – | 9 µM | 0.55 µM |
| CCCCC/C=C\C/C=C\C/C=C\C/C=C\CCCC(=O)NCCO [ANANDAMIDE] | > 10 µM | – | – | > 10 µM | – |
| CCCCC[C@H](O)/C=C/C=C\CCCCCCCC(=O)NCCO | 0.43 µM | > 1 µM | > 1.7 | > 10 µM | 0.6 µM |
| CCCCC[C@@H](O)/C=C/C=C\C/C=C\C=C\[C@H](O)CCCC(=O)NCCO | 1.26 µM | > 1 µM | – | > 10 µM | > 1 µM |
| CCCCC/C=C\C/C=C\C/C=C\C/C=C\CCCC(=O)OC[C@@H](O)CO | 3 µM | > 1 µM | – | > 10 µM | > 1 µM |
| CCCCC/C=C\C=C\C(O)C/C=C\C/C=C\CCCC(=O)NCCO (mixture of isomers) | 0.69 µM | > 1 µM | – | > 10 µM | > 1 µM |
| CCCCC/C=C\C/C=C\C/C=C\C/C=C\CCCC(=O)OC(CO)CO [2-ARACHIDONOYLGLYCEROL] | 5 µM | – | – | 3 µM | 0.1 µM |
| CCCCC/C=C\C[C@@H](O)/C=C/C=C\C/C=C\CCCC(=O)NCCO | 2.9 µM | 0.15 µM | 0.3 | > 10 µM | 0.5 µM |
| CCCCC[C@H](O)/C=C/C=C\C/C=C\C/C=C\CCCC(=O)OC[C@H](O)CO | 5 µM | > 1 µM | – | 7 µM | > 1 µM |
